Tested on: subcutaneous cancer xenografts
Format: in vivo, mice
Settings: oral; BZL101 0.5 ml gavage every third day; cyclophosphamide 25 mg/Kg/day in drinking water; FIG. 6
Protocol: As in Example 1, above, 10^5 cells were administered to each animal subcutaneously on Day 0. The animals were divided into four groups. The control group received only normal drinking water. The cyclophosphamide only group received 25 mg/Kg/day of cyclophosphamide in their drinking water.

O=P1(N(CCCl)CCCl)NCCCO1 (stereo not shown) [cyclophosphamide]
tumor growth inhibition: inhibited tumor growth as compared to the control

— patent US7700136B2, “Scutellaria barbata extract for the treatment of cancer” (priority 2005, dated 2010)
